One may read the IC50 as the concentration at which inhibition is half-maximal. Low values mean greater potency in that assay, high ones weaker potency in that assay. The term CLint scaled denotes the capacity of the preparation to metabolise the compound, expressed as a volume cleared per time. Broadly, the AUC(0-t) is the area under the concentration-time curve up to a stated or last time point. A high value points to high exposure.

Results on four compounds are retold here after US9938257B2 (Sunshine Lake Pharma Co., Ltd., priority 2015, dated 2018).

Data set [1] deals with Aurora-A (h) (Homo sapiens (Human), UniProt O14965). Put plainly: Aurora-A (h) kinase activity assay. In kind it is biochemical. How it is done:
(§1) The above assay procedure can be used to determine the IC50 for inhibition and/or the inhibition constant, Ki. The IC50 is defined as the concentration of compound required to reduce the enzyme activity by 50% under the condition of the assay. The IC50 value is estimated by preparing a 10 point curve using a ½ log dilution series (for example, a typical curve may be prepared using the following compound concentrations: 3 μM, 1 μM, 0.3 μM, 0.1 μM, 0.03 μM, 0.01 μM, 0.003 μM, 0.001 μM, 0.0003 μM and 0 μM).
Aurora-A (h) is incubated with 8 mM MOPS pH 7.0, 0.2 mM EDTA, 200 μM LRRASLG (Kemptide), 10 mM MgAcetate and [γ-^33P-ATP] (specific activity approx. 500 cpm/pmol, concentration as required). The reaction is initiated by the addition of the MgATP mix. After incubation for 40 minutes at room temperature, the reaction is stopped by the addition of 3% phosphoric acid solution. 10 μL of the reaction is then spotted onto a P30 filtermat and washed three times for 5 minutes in 75 mM phosphoric acid and once in methanol prior to drying and scintillation counting.
(§2) The kinase assays described herein were performed at Millipore UK Ltd, Dundee Technology Park, Dundee DD2 1SW, UK.

Data set [2] addresses JAK1 (h) (Homo sapiens (Human), UniProt P23458). Put plainly: JAK1 (h) kinase activity assay. In kind it is biochemical. The procedure:
as §1
JAK1 (h) is incubated with 20 mM Tris/HCl pH 7.5, 0.2 mM EDTA, 500 μM GEEPLYWSFPAKKK, 10 mM MgAcetate and [γ-^33P-ATP] (specific activity approx. 500 cpm/pmol, concentration as required). The reaction is initiated by the addition of the MgATP mix. After incubation for 40 minutes at room temperature, the reaction is stopped by the addition of 3% phosphoric acid solution. 10 μL of the reaction is then spotted onto a P30 filtermat and washed three times for 5 minutes in 75 mM phosphoric acid and once in methanol prior to drying and scintillation counting.
as §2

The target of data set [3] is Aurora-B (h) (Homo sapiens (Human), UniProt Q96GD4). Put plainly: Aurora-B (h) kinase activity assay. The data set is classed as biochemical. The procedure: as §1
Aurora-B (h) is incubated with 8 mM MOPS pH 7.0, 0.2 mM EDTA, 30 μM AKRRRLSSLRA, 10 mM MgAcetate and [γ-^33PATP] (specific activity approx. 500 cpm/pmol, concentration as required). The reaction is initiated by the addition of the MgATP mix. After incubation for 40 minutes at room temperature, the reaction is stopped by the addition of a 3% phosphoric acid solution. 10 μL of the reaction is then spotted onto a P30 filtermat and washed three times for 5 minutes in 75 mM phosphoric acid and once in methanol prior to drying and scintillation counting.
as §2

A short description of data set [4]: Compound stability in human liver microsomes. Particulars: pH 7.4; for half-life at 5 μM: human liver microsomes 0.5 mg protein/mL, compound 5 μM, NADPH 1.0 mM, 37° C., read-out: Human T1/2; for CLint scaled at 5 μM: human liver microsomes, in vivo CLint extrapolated. The data set is classed as in vitro ADME. An outline of the steps:
(§3)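 Parent compound depletion (5 μM) was tracked by LC/MS/MS over 60 min at 37° C using NADPH-fortified microsomes at 0.5 mg protein/mL. Dextromethorphan served as positive control and denatured microsomes as negative control.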

Data set [5] in a line: Pharmacokinetics after intravenous and oral administration in rats. The conditions noted are these: for Clearance (CL) after iv dosing / AUC(0-t) / half-life / Vd: dose 1 mg/kg, iv dosing; for F: oral bioavailability, iv dose 1 mg/kg; for AUC(0-t) / half-life / Vd: rat, plasma; for Vd: read-out: Vss. In kind it is in vivo. An outline of the steps:
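IV doses generally 0.5, 1 or 2 mg/kg; oral doses in rats generally 0.5, 1, 5 or 10 mg/kg, given as solution, suspension or capsule in various vehicles. Blood sampled over 0.083 or 0.25 h to 24 h; plasma analysed by LC/MS/MS.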

Data set [6] in a line: Compound stability in rat liver microsomes. The conditions noted are these: pH 7.4; for half-life at 5 μM: rat liver microsomes 0.5 mg protein/mL, compound 5 μM, NADPH 1.0 mM, 37° C., read-out: Rat T1/2; for CLint scaled at 5 μM: rat liver microsomes, in vivo CLint extrapolated. In kind it is in vitro ADME. An outline of the steps: as §3

Chain of Aurora-A (h) (O14965 whole entry): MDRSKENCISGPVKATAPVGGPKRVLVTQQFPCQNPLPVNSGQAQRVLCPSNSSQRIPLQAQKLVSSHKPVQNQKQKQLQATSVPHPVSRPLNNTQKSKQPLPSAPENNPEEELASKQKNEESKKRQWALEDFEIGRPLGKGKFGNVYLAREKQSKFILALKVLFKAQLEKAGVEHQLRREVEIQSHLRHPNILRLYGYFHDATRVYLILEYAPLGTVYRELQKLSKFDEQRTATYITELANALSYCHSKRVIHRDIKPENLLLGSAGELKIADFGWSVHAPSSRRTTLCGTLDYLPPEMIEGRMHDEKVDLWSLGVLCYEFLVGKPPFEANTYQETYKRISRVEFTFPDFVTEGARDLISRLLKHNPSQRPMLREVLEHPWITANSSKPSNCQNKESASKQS
Chain of JAK1 (h) (P23458 whole entry): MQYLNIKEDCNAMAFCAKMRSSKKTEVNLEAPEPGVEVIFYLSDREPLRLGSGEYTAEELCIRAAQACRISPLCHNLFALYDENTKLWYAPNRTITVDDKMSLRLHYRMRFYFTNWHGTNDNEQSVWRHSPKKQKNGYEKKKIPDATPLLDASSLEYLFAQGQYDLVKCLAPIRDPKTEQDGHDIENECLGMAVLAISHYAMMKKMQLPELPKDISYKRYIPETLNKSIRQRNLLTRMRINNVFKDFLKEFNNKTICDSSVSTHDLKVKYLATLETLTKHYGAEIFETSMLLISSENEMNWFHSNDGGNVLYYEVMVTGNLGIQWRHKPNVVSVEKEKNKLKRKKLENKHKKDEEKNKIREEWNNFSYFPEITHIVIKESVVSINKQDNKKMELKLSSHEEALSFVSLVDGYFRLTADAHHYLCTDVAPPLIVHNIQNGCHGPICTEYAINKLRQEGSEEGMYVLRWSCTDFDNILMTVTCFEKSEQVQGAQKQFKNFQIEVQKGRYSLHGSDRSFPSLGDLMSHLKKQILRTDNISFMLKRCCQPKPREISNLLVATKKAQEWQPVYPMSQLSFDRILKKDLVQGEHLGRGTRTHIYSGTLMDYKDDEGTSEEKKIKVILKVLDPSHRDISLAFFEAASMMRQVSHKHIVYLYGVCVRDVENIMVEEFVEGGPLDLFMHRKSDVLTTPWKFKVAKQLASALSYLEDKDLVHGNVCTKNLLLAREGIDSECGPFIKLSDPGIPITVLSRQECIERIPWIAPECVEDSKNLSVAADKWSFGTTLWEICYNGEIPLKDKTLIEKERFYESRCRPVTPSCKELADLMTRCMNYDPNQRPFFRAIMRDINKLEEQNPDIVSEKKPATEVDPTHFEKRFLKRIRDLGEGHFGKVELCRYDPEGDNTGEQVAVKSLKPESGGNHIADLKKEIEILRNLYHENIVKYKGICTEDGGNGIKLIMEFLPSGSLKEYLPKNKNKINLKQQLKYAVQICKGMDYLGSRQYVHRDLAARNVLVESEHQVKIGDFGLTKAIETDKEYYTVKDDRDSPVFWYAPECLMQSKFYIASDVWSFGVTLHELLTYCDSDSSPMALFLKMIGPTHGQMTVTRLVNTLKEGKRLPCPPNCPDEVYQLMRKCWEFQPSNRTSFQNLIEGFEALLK
Chain of Aurora-B (h) (Q96GD4 whole entry): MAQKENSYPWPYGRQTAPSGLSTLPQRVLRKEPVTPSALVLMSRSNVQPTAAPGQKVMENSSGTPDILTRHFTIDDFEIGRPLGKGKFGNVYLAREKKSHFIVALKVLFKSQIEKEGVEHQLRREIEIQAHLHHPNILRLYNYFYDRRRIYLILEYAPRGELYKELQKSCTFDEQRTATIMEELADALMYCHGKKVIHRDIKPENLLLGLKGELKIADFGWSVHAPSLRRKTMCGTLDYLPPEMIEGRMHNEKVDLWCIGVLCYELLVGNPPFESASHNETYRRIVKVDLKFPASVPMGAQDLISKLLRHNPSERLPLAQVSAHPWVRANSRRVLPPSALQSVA

Regarding `CC(O)Cn1cc(Nc2ncc(Cl)c(NC3CC4CN(S(C)(=O)=O)CC4C3)n2)cn1` (stereo not drawn) [Ex. 38, 1-(4-((5-chloro-4-((2-(methylsulfonyl)octahydrocyclopenta[c]pyrrol-5-yl)amino)pyrimidin-2-yl)amino)-1H-pyrazol-1-yl)propan-2-ol], in data set [1], the IC50 was found to be 0.8 nM. In data set [2], this compound returned an IC50 of 1 nM. In data set [3], the IC50 was found to be 1 nM. In addition, in data set [4], the half-life at 5 μM was 67.1 min and the CLint scaled at 5 μM was 25.9 mL/min/kg. In data set [5], the “Clearance (CL) after iv dosing” value stood at 62.8 mL/min/kg, the F worked out at 35.3%, the AUC(0-t) amounted to 270 ng·h/mL and the half-life is 25.2 min. For the same compound, the Vd in data set [5] was 1.65 L/kg. In addition, in data set [6], the half-life at 5 μM was 45.5 min and the CLint scaled at 5 μM is 54.6 mL/min/kg.

`CC(C)(O)Cn1cc(Nc2ncc(Cl)c(NC3CC4CN(S(C)(=O)=O)CC4C3)n2)cn1` (stereo not drawn) [Ex. 39, 1-(4-((5-chloro-4-((2-(methylsulfonyl)octahydrocyclopenta[c]pyrrol-5-yl)amino)pyrimidin-2-yl)amino)-1H-pyrazol-1-yl)-2-methylpropan-2-ol] showed an IC50 in data set [1] of 2 nM. This compound had an IC50 in data set [2] of 2 nM. Also, in data set [3], the IC50 stood at 1 nM. In data set [4], the half-life at 5 μM was 49.6 min and the CLint scaled at 5 μM was 35 mL/min/kg. For the same compound, in data set [5], the “Clearance (CL) after iv dosing” value came to 96 mL/min/kg, the F is given as 40.5%, the AUC(0-t) stood at 295 ng·h/mL and the half-life was 38.4 min. Besides, the Vd in data set [5] came to 1.88 L/kg. Also, in data set [6], the half-life at 5 μM came out at 39.2 min and the intrinsic metabolic clearance (CLint scaled) at 5 μM was 63.3 mL/min/kg.

As for `Cn1cc(Nc2ncc(Cl)c(NC3CC4CN(S(=O)(=O)NC5CC5)CC4C3)n2)cn1` (stereo not drawn) [Ex. 34, 5-((5-chloro-2-((1-methyl-1H-pyrazol-4-yl)amino)pyrimidin-4-yl)amino)-N-cyclopropylhexahydrocyclopenta[c]pyrrole-2(1H)-sulfonamide], the midpoint of inhibition in data set [1], the IC50, lay at 1 nM. This compound registered a half-maximal inhibitory concentration (IC50) in data set [2] of 3 nM. The same compound gave an IC50 in data set [3] of 0.8 nM. In data set [4], the half-life at 5 μM worked out at 35.7 min and the CLint scaled at 5 μM was 48.6 mL/min/kg. Further, in data set [5], the “Clearance (CL) after iv dosing” value was 48.8 mL/min/kg, the F is 54.0%, the AUC(0-t) came out at 348 ng·h/mL and the half-life was 17.4 min. The Vd in data set [5] was 1.18 L/kg. In data set [6], the half-life at 5 μM is 17.8 min and the CLint scaled at 5 μM was 140 mL/min/kg.

Consider `Cn1cc(Nc2ncc(Cl)c(NC3CC4CN(C(=O)NC5CC5)CC4C3)n2)cn1` (stereo not drawn) [Ex. 19, 5-((5-chloro-2-((1-methyl-1H-pyrazol-4-yl)amino)pyrimidin-4-yl)amino)-N-cyclopropylhexahydrocyclopenta[c]pyrrole-2(1H)-carboxamide], for which the IC50 in data set [1] was 8 nM. This compound also yielded an IC50 in data set [2] of 23 nM. The compound further showed an IC50 in data set [3] of 1 nM. Also, in data set [4], the half-life at 5 μM was 178 min and the CLint scaled at 5 μM is 9.78 mL/min/kg. In data set [5], the “Clearance (CL) after iv dosing” value was determined as 63.7 mL/min/kg, the F turned out to be 24.0%, the AUC(0-t) was determined as 263 ng·h/mL and the half-life was 21 min. For the same compound, the Vd in data set [5] was 0.95 L/kg. In data set [6], the half-life at 5 μM was found to be 96.9 min and the intrinsic metabolic clearance (CLint scaled) at 5 μM was 25.6 mL/min/kg.
